Reference: PubChem BioAssay (NCI)
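Grown in 96-well plates, cells were treated for 48 hours with each compound at five concentrations. Insufficient inhibition: endpoint recorded as highest concentration tested. GI50: concentration for 50% inhibition of growth. TGI: total growth inhibition.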

What was measured:
Test in all cases: inhibition of tumour cell growth, NCI panel, 48 h
EKVX NSCLC = system: EKVX NSCLC
IGROV1 ovarian = system: IGROV1 ovarian
KM12 colon = system: KM12 colon
MALME-3M melanoma = system: MALME-3M melanoma
NCI-H226 lung = system: NCI-H226 lung
SF-268 CNS = system: SF-268 CNS
SK-OV-3 ovarian = system: SK-OV-3 ovarian
U251 CNS = system: U251 CNS
UACC-257 melanoma = system: UACC-257 melanoma
UACC-62 melanoma = system: UACC-62 melanoma

| SMILES | TGI (EKVX NSCLC) | TGI (IGROV1 ovarian) | TGI (KM12 colon) | TGI (MALME-3M melanoma) | TGI (NCI-H226 lung) | TGI (SF-268 CNS) | TGI (SK-OV-3 ovarian) | TGI (U251 CNS) | TGI (UACC-257 melanoma) | TGI (UACC-62 melanoma) | GI50 (EKVX NSCLC) | GI50 (IGROV1 ovarian) | GI50 (KM12 colon) | GI50 (MALME-3M melanoma) | GI50 (NCI-H226 lung) | GI50 (SF-268 CNS) | GI50 (SK-OV-3 ovarian) | GI50 (U251 CNS) | GI50 (UACC-257 melanoma) | GI50 (UACC-62 melanoma) |
| --- | --- | --- | --- | --- | --- | --- | --- | --- | --- | --- | --- | --- | --- | --- | --- | --- | --- | --- | --- | --- |
| CC(=O)C1Cn2c(nc3ccccc32)C[Se]1 (stereo not drawn) | 28.7 µM | 6.02 µM | 10.7 µM | 5.83 µM | 12.5 µM | 11.5 µM | 34 µM | 3.76 µM | 5.38 µM | 3.64 µM |  |  |  |  |  |  |  |  |  |  |
| Nc1ccccc1/C(O)=C1/CCOC1=O | > 100 µM | > 100 µM | > 100 µM | > 100 µM | > 100 µM | > 100 µM | > 100 µM | > 100 µM | > 100 µM | > 100 µM |  |  |  |  |  |  |  |  |  |  |
| COc1ccc(-c2[nH]c3ccc(OC)cc3c2/C=C(\C#N)S(=O)(=O)c2ccccc2)cc1 | > 100 µM | > 45.9 µM | 7.69 µM | > 82.2 µM | > 100 µM | > 100 µM | > 65.9 µM | > 100 µM | > 46.5 µM | > 61.1 µM | 3.21 µM | 3.76 µM | 0.653 µM | 3.13 µM | 3.51 µM | 1.56 µM | 0.963 µM | 0.557 µM | 7.06 µM | 0.644 µM |
| NC(=O)c1cc(Cl)ccc1NC(=O)/C=C/c1ccccc1 | > 100 µM | > 100 µM | > 100 µM | > 100 µM | > 100 µM | > 60.4 µM | > 35.5 µM | > 35.4 µM | > 100 µM | > 100 µM | 2.83 µM | 3.03 µM | 2.19 µM | 3.18 µM | 6.42 µM | 5.96 µM | 4.3 µM | 2.95 µM | > 38.8 µM | 2.18 µM |
| COc1cc(/C=C/c2ccc(OC)c(O)c2)cc(OC)c1 | 90 µM | 86.4 µM | 28.3 µM | 38 µM | 16.7 µM | 80.5 µM | 86.6 µM | 15 µM | 24.9 µM | 15.1 µM |  |  |  |  |  |  |  |  |  |  |
| COc1cc2c3c(n(CCCN)c(=O)c2cc1OC)-c1ccc(C#N)cc1C3=O | 41.9 µM | > 100 µM | > 100 µM | 73.3 µM | 38 µM | 42.4 µM | 28 µM | 28.4 µM | > 100 µM | 32.2 µM | 19 µM | 8.79 µM | 4.88 µM | 18.9 µM | 17.3 µM | 14.7 µM | 12.7 µM | 13 µM | 28.5 µM | 17 µM |
| Cc1ccc(NC(=O)c2cccc(C(C)(C)C#N)c2)cc1Nc1ccc2ncn(C)c(=O)c2c1 | > 100 µM | > 100 µM | > 100 µM | 0.0434 µM | > 100 µM | > 100 µM | > 100 µM | > 100 µM | > 100 µM |  | 3.74 µM | 1.49 µM | 1.66 µM |  | 5.62 µM | 6.01 µM | > 100 µM | 7.19 µM | 0.0405 µM | 0.0275 µM |
| N#Cc1cc(-c2cc3ccccc3o2)oc1N | 14.1 µM | 6.35 µM | 11.8 µM | 6.98 µM | 13.4 µM | 20.1 µM | 7.15 µM | 14.7 µM | 74.1 µM | 17.2 µM | 2.83 µM | 1.76 µM | 3.58 µM | 2.45 µM | 3.12 µM | 4.73 µM | 2.38 µM | 3.15 µM | 3.8 µM | 3.79 µM |
| O=C(Nc1ccccc1-c1nc2ccccc2[nH]c1=O)c1ccccc1 | 70.3 µM | 70.6 µM | > 100 µM | 92.7 µM | 60.1 µM | 64.8 µM | 40.5 µM | 49.6 µM | > 100 µM | 75.2 µM |  |  |  |  |  |  |  |  |  |  |
| CCc1nc(N)nc(N)c1-c1ccc(NC)c([N+](=O)[O-])c1 | > 100 µM | > 100 µM | > 100 µM | > 100 µM | > 100 µM | > 100 µM | > 100 µM | > 100 µM | > 100 µM | > 100 µM |  |  |  |  |  |  |  |  |  |  |
| CN1CCN(CCCNc2nc3ccc(Oc4ccc(NC(=O)Nc5cc(C(F)(F)F)ccc5F)cc4)cc3[nH]2)CC1 | > 25 µM | > 23.9 µM | 6.74 µM | 9.67 µM | 16.8 µM | 8.04 µM | 10.3 µM | 7.38 µM | 7.93 µM | 7.66 µM | 6.69 µM | 9.62 µM | 3.44 µM | 4.69 µM | 5.55 µM | 4.17 µM | 4.36 µM | 3.86 µM | 4.02 µM | 4.1 µM |
| Nc1ccccc1C#C/C=C\C#Cc1ccccc1N | 69.5 µM | > 100 µM | 27.6 µM | 32.9 µM | 53.8 µM | 37.9 µM | 54.9 µM | 32.2 µM | > 100 µM | 27.5 µM | 17 µM | 34.6 µM | 3.26 µM | 7.86 µM | 19.6 µM | 10.7 µM | 23.2 µM | 13.9 µM | 41.3 µM | 11.4 µM |
| COc1ccc2[nH]c3c4[nH]c5ccc(OC)cc5c4c4c(c3c2c1)C(=O)NC4=O | > 25 µM | > 25 µM | > 25 µM | > 25 µM | > 25 µM | > 25 µM | > 25 µM | > 25 µM | > 25 µM | > 25 µM | > 25 µM | > 25 µM | 1.76 µM | 12.4 µM | > 25 µM | > 22 µM | > 25 µM | > 8.42 µM | > 25 µM | > 25 µM |
